Source: publication PMC13086964, “USP7 deubiquitinase stabilizes FAN1 to support DNA crosslink repair and suppress CAG repeat expansion” (Nature Communications, 2026)

Tests used:
RPE-1 p53 KO cells [1] = assay: clonogenic survival assay, RPE-1 p53 KO; format: cell-based, human; conditions: 24 h, n = 3
Protocol: Fig. 4 USP7 facilitates FAN1 localization and function during ICL repair. A QIBC analysis of chromatin-bound GFP-FAN1 foci in U2OS^eGFP-FAN1 cells transfected with either non-targeting (Ctrl), USP7 or FANCD2 siRNA oligos. 24 h later, cells were either mock-treated (–) or treated (+) with MMC (150 ng/ml) for 24 h. Color-coded scatterplots (from grey to green) indicate the number of GFP-FAN1 foci per nucleus from one biological replicate. Mean (solid line) and standard deviation (SD) from the mean (dashed lines) are indicated. Representative images are shown (bottom). Scale bar: 10 μm. This experiment was repeated three times. B QIBC analysis of endogenous FANCD2 foci in U2OS^eGFP-FAN1 cells transfected with either non-targeting (Ctrl) or the indicated siRNA oligos. 24 h later, cells were either mock-treated (−) or treated (+) with MMC (150 ng/ml) for 24 h. […] 24 h later, cells were either mock-treated (−) or treated (+) with MMC (1 μg/ml) for 48 h and whole-cell lysates were analysed by immunoblotting. […] Relative FAN1, cleaved PARP-1 or cleaved Caspase-3 protein levels were determined by quantification of the respective band intensity (normalized to GAPDH) with the ImageJ software. […]
HeLa and RPE-1 p53 KO cells were transfected with the indicated siRNA. […] For analysis, plates were scanned and analysed with the ImageJ Plugin ColonyArea using the parameter “intensity percent”.

RPE-1 p53 KO cells [2] = assay: apoptosis: PARP-1 and caspase-3 cleavage, RPE-1 p53 KO; format: cell-based, human; conditions: RPE-1 p53 KO cells depleted of FAN1, USP7, or both, MMC 1 μg/ml, 48 h
Protocol: If not stated otherwise, cells were lysed in RIPA buffer (50 mM Tris-HCl, pH 7.5, 150 mM NaCl, 1% IGEPAL, 0.5% sodium deoxycholate, 0.1% SDS) supplemented with phosphatase inhibitors (20 mM NaF and 1 mM Na3VO4) and protease inhibitors (1 mM benzamidine and 0.1 mM PMSF), incubated with Benzonase (Merck) for at least 30 min at 4 °C, and clarified by centrifugation. Proteins were resolved by SDS-PAGE and transferred to nitrocellulose membranes. Immunoblots were performed with the indicated antibodies, and proteins were visualized using the Advansta WesternBright ECL reagent and the Fusion Solo S imaging system. Relative protein levels were determined by quantification of the protein of interest band intensity normalized to the loading control with the ImageJ software. […]
the mean (dashed lines) are indicated. Representative images are shown (bottom). Scale bar: 10 μm.
This experiment was repeated three times. (B) QIBC analysis of chromatin-bound GFP-FAN1 foci in U2OSGFP-FAN1 cells were concurrently mock-treated (-) or treated (+) with MMC (150 ng/ml) and either FT671 (10 µM) or GNE-6640 (10 µM) for 24 h. […] 24 h later, cells were either mock-treated (-) or treated (+) with MMC (1 μg/ml) for 48 h and whole-cell lysates were analysed by immunoblotting. […]
Relative FAN1 protein levels were determined by quantification of FAN1 band intensity (normalized to GAPDH) with the ImageJ software. […]

CO[C@@]12[C@H](COC(N)=O)C3=C(C(=O)C(C)=C(N)C3=O)N1C[C@@H]1N[C@@H]12 [MMC, Mitomycin C]
MMC sensitivity, FAN1/USP7 co-depletion (RPE-1 p53 KO cells [1]): did not enhance sensitivity beyond individual knock-down of FAN1
MMC sensitivity, FANCD2-depleted (RPE-1 p53 KO cells [1]): strongest MMC sensitivity
apoptosis (cleavage of PARP-1 and caspase-3) (RPE-1 p53 KO cells [2]): largely recapitulated
